Data taken from patent publication US7678803B2, “Quinazoline derivatives for the treatment of cancer” (Serenex, Inc., priority 2006, dated 2010).

Test system: HSP-90 (heat shock protein 90)
Experiment: Determination of affinity for HSP-90 (elution from purine affinity column); note: key: +++: very high; ++: high; +: moderate
Settings: relative binding affinity to HSP-90
Experimental: Affinity of test compounds for HSP-90 is determined as follows: Protein mixtures obtained from a variety of organ tissues (for example: spleen, liver and lung) are reversibly bound to a purine affinity column to capture purine-binding proteins, especially HSP-90. […] The elution profile of Formula I compounds is determined by 1-dimensional SDS polyacrylamide gel electrophoresis. Gels are stained with a fluorescent stain such as sypro ruby (a highly sensitive fluorescent protein stain that can readily detect less than 1 fmol of total protein, i.e., less than 0.04 ng for a 40 kDa protein) or silver nitrate. The gels are imaged using a standard flat bed gel imager and the amount of protein estimated by densitometry. The percent of HSP-90 protein eluted from the column at each concentration is determined and IC50 values are calculated from these estimates.

Compound | Affinity
Cc1nc(N)c2ccc(-n3cc(C)c4c3CC(C)(C)CC4=O)cc2n1 [Compound 40, 1-(4-amino-2-methylquinazolin-7-yl)-3,6,6-trimethyl-6,7-dihydro-1H-indol-4(5H)-one] | +++
COCCCOc1c(-n2cc(C)c3c2CC(C)(C)CC3=O)ccc2c(N)ncnc12 [Compound 60, 1-(4-amino-8-(3-methoxypropoxy)quinazolin-7-yl)-3,6,6-trimethyl-6,7-dihydro-1H-indol-4(5H)-one] | +++
CC(C)Cc1nn(-c2ccc3c(N)ncnc3c2)c2c1C(=O)CC(C)(C)C2 [Compound 87, 1-(4-aminoquinazolin-7-yl)-3-isobutyl-6,6-dimethyl-6,7-dihydro-1H-indazol-4(5H)-one] | +++
Cc1nn(-c2ccc3c(N)ncc(C#N)c3c2)c2c1C(=O)CC(C)(C)C2 [Compound 98, 1-amino-6-(3,6,6-trimethyl-4-oxo-4,5,6,7-tetrahydro-1H-indazol-1-yl)isoquinoline-4-carbonitrile] | ++
Cc1cn(-c2ccc3c(N)ncnc3c2SCCNC(=O)OC(C)(C)C)c2c1C(=O)CC(C)(C)C2 [Compound 77, tert-butyl 2-(4-amino-7-(3,6,6-trimethyl-4-oxo-4,5,6,7-tetrahydro-1H-indol-1-yl)quinazolin-8-ylthio)ethylcarbamate] | ++
Cc1nn(-c2ccc3c(N)ncnc3c2)c2c1C(=O)CCC2 [Compound 88, 1-(4-aminoquinazolin-7-yl)-3-methyl-6,7-dihydro-1H-indazol-4(5H)-one] | +
C#CCOc1cc(-n2cc(C)c3c2CC(C)(C)CC3=O)cc2ncnc(N)c12 [Compound 71, 1-(4-amino-5-(prop-2-ynyloxy)quinazolin-7-yl)-3,6,6-trimethyl-6,7-dihydro-1H-indol-4(5H)-one] | +
CCCCSc1c(-n2cc(C)c3c2CC(C)CC3=O)ccc2c(N)ncnc12 (stereo not shown) [Compound 72, 1-(4-amino-8-(butylthio)quinazolin-7-yl)-3,6-dimethyl-6,7-dihydro-1H-indol-4(5H)-one] | ++
Cc1cn(-c2ccc3c(Cl)nccc3c2)c2c1C(=O)CC(C)(C)C2 [Compound 44, 1-(1-chloroisoquinolin-6-yl)-3,6,6-trimethyl-6,7-dihydro-1H-indol-4(5H)-one] | +
Cc1cn(-c2ccc3c(N)ncnc3c2O)c2c1C(=O)CC(C)(C)C2 [Compound 68, 1-(4-amino-8-hydroxyquinazolin-7-yl)-3,6,6-trimethyl-6,7-dihydro-1H-indol-4(5H)-one] | +++
Cc1nn(-c2ccc3c(N)ncnc3c2F)c2c1C(=O)CC(C)(C)C2 [Compound 95, 1-(4-amino-8-fluoroquinazolin-7-yl)-3,6,6-trimethyl-6,7-dihydro-1H-indazol-4(5H)-one] | +++
Cc1cn(-c2ccc3c(N)ncnc3c2)c2c1C(=O)CCC2 [Compound 45, 1-(4-aminoquinazolin-7-yl)-3-methyl-6,7-dihydro-1H-indol-4(5H)-one] | ++
Cc1nn(-c2ccc3c(N)ncc(C(N)=O)c3c2)c2c1C(=O)CC(C)(C)C2 [Compound 99, 1-amino-6-(3,6,6-trimethyl-4-oxo-4,5,6,7-tetrahydro-1H-indazol-1-yl)isoquinoline-4-carboxamide] | ++
Cc1cn(-c2ccc3c(N)ncnc3c2SCCO)c2c1C(=O)CC(C)(C)C2 [Compound 93, 1-(4-amino-8-(2-hydroxyethylthio)quinazolin-7-yl)-3,6,6-trimethyl-6,7-dihydro-1H-indol-4(5H)-one] | +++
Cc1cn(-c2ccc3c(N)ncnc3c2Cl)c2c1C(=O)CC(C)(C)C2 [Compound 80, 1-(4-amino-8-chloroquinazolin-7-yl)-3,6,6-trimethyl-6,7-dihydro-1H-indol-4(5H)-one] | ++
CC1(C)CC(=O)c2c(C(F)(F)F)nn(-c3ccc4c(N)ncc(Br)c4c3)c2C1 [Compound 46, 1-(1-amino-4-bromoisoquinolin-6-yl)-6,6-dimethyl-3-(trifluoromethyl)-6,7-dihydro-1H-indazol-4(5H)-one] | +
